One assay concerns the target T1, complex II (Rattus norvegicus, UniProt P21913+Q641Z9+Q6PCT8+Q920L2).
T1 construct: host or cells: rat PD model
The following applies: rat PD model; Jiang X et al. 2016; cited from earlier work.

Another assay deals with primary skin fibroblasts. The following applies: uncoupler as positive control (50 μM per method), 30 minutes.
Assay [1] relates to mitochondiral complex I, II and IV. The following applies: Kumar M et al. 2020; worded as 'proposed'; cited from earlier work.
For a further assay, the system named is Complex I. The following applies: rat model; Amarsanaa K et al. 2021; cited from earlier work.

The structures appear in SMILES notation.

T1 sequence (Q920L2 35-656): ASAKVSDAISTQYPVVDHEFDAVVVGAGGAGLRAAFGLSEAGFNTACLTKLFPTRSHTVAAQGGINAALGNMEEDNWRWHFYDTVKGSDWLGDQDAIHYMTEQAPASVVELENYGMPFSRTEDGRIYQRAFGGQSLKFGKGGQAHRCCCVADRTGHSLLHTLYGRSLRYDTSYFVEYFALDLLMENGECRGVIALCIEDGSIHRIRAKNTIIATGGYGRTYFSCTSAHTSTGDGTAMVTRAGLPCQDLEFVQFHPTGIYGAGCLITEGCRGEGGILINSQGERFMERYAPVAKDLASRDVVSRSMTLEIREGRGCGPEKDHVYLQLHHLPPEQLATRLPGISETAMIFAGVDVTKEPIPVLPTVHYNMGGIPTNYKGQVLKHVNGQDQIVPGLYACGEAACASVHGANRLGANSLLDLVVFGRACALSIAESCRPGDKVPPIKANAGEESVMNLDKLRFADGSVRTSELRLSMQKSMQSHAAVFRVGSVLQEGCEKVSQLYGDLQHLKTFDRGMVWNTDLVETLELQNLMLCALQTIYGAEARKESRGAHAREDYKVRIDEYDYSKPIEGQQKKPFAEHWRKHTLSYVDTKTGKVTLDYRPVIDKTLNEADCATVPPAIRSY
T1 sequence (P21913 31-282): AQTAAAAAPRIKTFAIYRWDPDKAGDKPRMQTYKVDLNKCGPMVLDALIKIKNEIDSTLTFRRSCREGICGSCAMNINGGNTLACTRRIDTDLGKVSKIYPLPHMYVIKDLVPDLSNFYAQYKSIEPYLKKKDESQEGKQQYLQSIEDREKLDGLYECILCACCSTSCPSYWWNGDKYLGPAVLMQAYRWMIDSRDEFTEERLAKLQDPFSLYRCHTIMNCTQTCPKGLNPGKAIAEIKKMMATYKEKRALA
T1 sequence (Q641Z9 1-169): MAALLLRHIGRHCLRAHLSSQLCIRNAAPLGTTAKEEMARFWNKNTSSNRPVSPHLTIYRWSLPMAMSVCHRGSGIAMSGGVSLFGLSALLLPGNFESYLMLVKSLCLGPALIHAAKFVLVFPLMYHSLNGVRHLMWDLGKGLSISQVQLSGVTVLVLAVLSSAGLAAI
T1 sequence (Q6PCT8 57-159): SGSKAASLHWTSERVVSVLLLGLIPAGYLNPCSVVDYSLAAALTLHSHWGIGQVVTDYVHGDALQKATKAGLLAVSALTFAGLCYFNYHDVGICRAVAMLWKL
Description for primary skin fibroblasts: Primary skin fibroblasts (10,000 cells per well) were seeded into Cell Carrier Ultra 96-well plates. The next day, fibroblast medium was removed and replaced by FBS-deprived DMEM containing 100 nM Tetramethylrhodamine, Ethyl Ester, Perchlorate (TMRE), a fluorescent dye that specifically accumulates in active, polarized mitochondria, or vehicle only (DMSO). The mitochondrial OXPHOS (OXPHOS-mito) uncoupler carbonyl cyanide m-chlorophenyl hydrazone (CCCP) was used—at the concentration of 50 μM—as a positive control of TMRE staining. Nuclei were stained with 1 μg/ml Hoechst 33342. Cells were incubated in the dark at 37° C. for 30 minutes before proceeding with high-throughput automated confocal microscopy analysis. Z-stack images were acquired at 20× magnification using the CellVoyager CV8000 High-Content Screening System.
An in-house Matlab image processing pipeline was used to quantify TMRE signal. The mitochondria channel was sum-projected on the x-y plane and preprocessed using a DoG filter of 33 pixel side-length, and sigmas set to 1 and 1.5 pixels, prior to thresholding (>10). Connected components with less than 6 pixels were removed from mitochondrial analysis. Total mitochondrial TMRE fluorescence intensity per field was normalized to nuclear area. […] Nine fields per well and at least two wells per condition were assessed for each of the three independent biological replicates.

In the case of `COc1ccc(Cn2cc(-c3cc(C(F)(F)F)nc(S(C)(=O)=O)n3)ccc2=O)cc1OC` [Compound A, 1-(3,4-dimethoxybenzyl)-5-(2-(methylsulfonyl)-6-(trifluoromethyl)pyrimidin-4-yl) pyridin-2 (1H)], the “dopaminergic neurons' death” value on complex II is listed as “preventing dopaminergic neurons' death”.
For the compound `N#CC(C#N)=NNc1ccc(OC(F)(F)F)cc1` [FCCP, carbonyl cyanide p-trifluoromethoxyphenyl hydrazone], the “TMRE fluorescence (mitochondrial membrane potential, Δψm)” value in the assay on primary skin fibroblasts is “robust reduction of TMRE fluorescence”.
As to `[Na+].[SH-]` [NaHS], the “complex I, II and IV mediated oxygen consumption rate” value in assay [1] was “increasing mitochondiral complex I, II and IV mediated oxygen consumption rate”.
On to `COc1ccc(-c2cc(=O)c3c(OC)c(OC)c(OC)c(OC)c3o2)cc1OC` [Nobiletin, 5,6,7,8,3′,4′-hexamethoxyflavone], for which the “activity of complex I” value with Complex I is “restore activity of complex I”.
